Values joined by “and” are separate entries in the source; they are usually repeats but may differ in a detail not shown here. Identical values can stand only once. Like-named read-outs stand apart in the source and are kept apart here. Marks after values point to notes of the source that are not given here.
Assays:
[1] = test system: gentamicin-induced AKI in zebrafish larvae; experiment: Gentamicin-induced AKI in zebrafish larvae (zfAKI assay), Kaplan-Meier survival; format: in vivo; settings: two different doses, compared to the untreated control
Excerpt: The gentamicin-induced AKI in zebrafish larvae (zfAKI assay), recapitulates injury and proliferation-based repair in mammalian AKI, but allows for higher throughput analysis of compound efficacy in AKI than mouse models. As fish are soaked in compounds, this assay is not subject to drug delivery and absorption problems that occur in early drug discovery in mice. This assay was used as a primary screening assay with the throughput being increased.

HDAC8 = molecular target: T1, HDAC8 (Homo sapiens, UniProt Q9BY41); experiment: Cellular thermal shift assay (CETSA) for HDAC8 binding; settings: compared to a control with no compound, FIG. 1
T1 construct: CETSA uses cell lysates heated to different temperatures and quantifies the target protein in the soluble fraction by western blot; endogenous in cells; host or cells: cell lysate
T1 sequence (Q9BY41 1-377): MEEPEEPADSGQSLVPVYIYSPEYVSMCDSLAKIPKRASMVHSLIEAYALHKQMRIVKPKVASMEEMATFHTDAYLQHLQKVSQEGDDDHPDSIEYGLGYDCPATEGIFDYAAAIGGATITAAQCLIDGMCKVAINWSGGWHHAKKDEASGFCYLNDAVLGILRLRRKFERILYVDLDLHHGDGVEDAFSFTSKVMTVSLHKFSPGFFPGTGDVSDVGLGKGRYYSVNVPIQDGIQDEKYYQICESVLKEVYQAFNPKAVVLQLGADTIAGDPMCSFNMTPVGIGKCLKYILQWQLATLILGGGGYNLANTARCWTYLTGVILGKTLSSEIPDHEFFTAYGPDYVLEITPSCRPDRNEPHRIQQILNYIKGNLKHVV
Excerpt: Cellular thermal shift assay (CETSA) was developed from the same principles of ligand induced thermal stability assays (TSA) of proteins. During TSA, purified proteins are heated in the absence or presence of ligand and then quickly cooled. Proteins that are bound to ligand are more thermally stable than their unbound counterparts, and these “thermal shifts” can be detected by various methods. CETSA uses cell lysates heated to different temperatures and quantifies the target protein in the soluble fraction by western blot. CETSA is a direct measurement of […] through the measurement of the biophysical properties that stabilized the protein-ligand complex under thermal denaturation. The UPHH-00171 compound was tested in the CETSA assay, specifically for HDAC8 binding.

[2] = Plasma pharmacokinetics after a single intraperitoneal dose; format: in vivo, male CD1 mice; settings: for plasma concentrations quantifiable up to: LLOQ 10.38 ng/mL; for concentration at 0.08 hr / concentration at 0.25 hr / concentration at 0.5 hr / concentration at 1 hr / concentration at 2 hr / concentration at 4 hr / concentration at 8 hr / concentration at 24 hr: intraperitoneal
Description: The objective of this example was to investigate the plasma pharmacokinetics of UPHH-000171 following a single intraperitoneal dose administration to male CD1 mice at 10 and 50 mg/kg. Eighteen male mice were divided in to two groups with nine animals in each group,
Animals in Group 1 and Group 2 were administered with solution formulation of UPHH-000171 in 5% NMP, 25% Solutol HS-15 and 70% normal saline intraperitoneally at 10 and 50 mg/kg dose, respectively.
The blood samples were collected from set of three mice at each time point in labeled micro centrifuge tube containing K2EDTA solution as anticoagulant at Pre-dose, 0.08, 0.25, 0.5, 1, 2, 4, 8 and 24 hr. Plasma samples were separated by centrifugation of whole blood and stored below −70±10° C. until bioanalysis. All samples were processed for analysis by protein precipitation using acetonitrile and analyzed with fit-for-purpose LC-MS/MS method (LLOQ=10.38 ng/mL). Pharmacokinetic parameters were calculated using the non-compartmental analysis tool of Phoenix WinNonlin® (Version 7.0). Mean pharmacokinetic parameters are summarized below: […]

[3] = male, CD1, mouse, 10 mg/kg IP, plasma
[4] = male, CD1, mouse, 50 mg/kg IP, plasma

COc1ccc(Cn2ccc3ccc(C(=O)NS(C)(=O)=O)cc32)cc1 [UPHH-000171, 1-(4-methoxybenzyl)-N-(methylsulfonyl)-1H-indole-6-carboxamide]
survival in zfAKI assay [1]: increase survival | thermal stability of HDAC8 in CETSA (HDAC8; listed as UPHH171): increased thermal stability | thermal stability of HDAC8 in CETSA (HDAC8; listed as UPHH-00171): increase in thermal stability | Plasma Concentration, individual animal ([2]; 10 mg/kg IP, 0.08 hr): 9871.25 ng/mL and 2877.79 ng/mL and 7508.44 ng/mL | Plasma Concentration, individual animal ([2]; 10 mg/kg IP, 0.25 hr): 28861.97 ng/mL and 28672.95 ng/mL | Plasma Concentration, individual animal ([2]; 10 mg/kg IP, 0.5 hr): 41628.22 ng/mL and 36468.73 ng/mL | Plasma Concentration, individual animal ([2]; 10 mg/kg IP, 1 hr): 49594.52 ng/mL and 19264.72 ng/mL and 34912.30 ng/mL | Plasma Concentration, individual animal ([2]; 10 mg/kg IP, 2 hr): 46853.15 ng/mL and 43408.40 ng/mL | Plasma Concentration, individual animal ([2]; 10 mg/kg IP, 4 hr): 47512.89 ng/mL and 73497.85 ng/mL and 31815.34 ng/mL | Plasma Concentration, individual animal ([2]; 10 mg/kg IP, 8 hr): 20138.85 ng/mL and 29805.54 ng/mL | Plasma Concentration, individual animal ([2]; 10 mg/kg IP, 24 hr, animal 7 excluded as an outlier): 2930.59^e ng/mL and 131.01 ng/mL and 68.44 ng/mL | plasma concentrations quantifiable up to ([2]; 10 mg/kg IP): up to 24 hr | Plasma Concentration, individual animal ([2]; 50 mg/kg IP, 0.08 hr): 59305.08 ng/mL and 90638.28 ng/mL | Plasma Concentration, individual animal ([2]; 50 mg/kg IP, 0.25 hr): 31701.46 ng/mL and 171000.65 ng/mL and 182938.71 ng/mL | Plasma Concentration, individual animal ([2]; 50 mg/kg IP, 0.5 hr): 137922.52 ng/mL and 96505.03 ng/mL and 47522.98 ng/mL | Plasma Concentration, individual animal ([2]; 50 mg/kg IP, 1 hr): 218799.23 ng/mL and 236020.35 ng/mL | Plasma Concentration, individual animal ([2]; 50 mg/kg IP, 2 hr): 93162.33 ng/mL and 195094.83 ng/mL and 235858.27 ng/mL | Plasma Concentration, individual animal ([2]; 50 mg/kg IP, 4 hr): 106201.99 ng/mL and 115510.21 ng/mL | Plasma Concentration, individual animal ([2]; 50 mg/kg IP, 8 hr): 93195.14 ng/mL and 75070.05 ng/mL | Plasma Concentration, individual animal ([2]; 50 mg/kg IP, 24 hr): 1407.79 ng/mL and 391.49 ng/mL and 1081.42 ng/mL | plasma concentrations quantifiable up to ([2]; 50 mg/kg IP): up to 24 hr | dose related increase in plasma exposure (AUClast) ([2]; from 10 mg/kg to 50 mg/kg IP): 3 fold | concentration at 0.08 hr ([2]; male, CD1, mouse, plasma, 10 mg/kg, 10 mg/kg IP, 0.08 hr, read-out: Plasma Concentration, Mean): 6.75 µg/mL | concentration at 0.25 hr ([2]; male, CD1, mouse, plasma, 10 mg/kg, 10 mg/kg IP, 0.25 hr, read-out: Plasma Concentration, Mean): 30.2 µg/mL | concentration at 0.25 hr ([2]; male, CD1, mouse, plasma, 10 mg/kg, 10 mg/kg IP, 0.25 hr, read-out: Plasma Concentration, individual animal): 33 µg/mL | concentration at 0.5 hr ([2]; male, CD1, mouse, plasma, 10 mg/kg, 10 mg/kg IP, 0.5 hr, read-out: Plasma Concentration, Mean): 41.2 µg/mL | concentration at 0.5 hr ([2]; male, CD1, mouse, plasma, 10 mg/kg, 10 mg/kg IP, 0.5 hr, read-out: Plasma Concentration, individual animal): 45.6 µg/mL | concentration at 1 hr ([2]; male, CD1, mouse, plasma, 10 mg/kg, 10 mg/kg IP, 1 hr, read-out: Plasma Concentration, Mean): 34.6 µg/mL | concentration at 2 hr ([2]; male, CD1, mouse, plasma, 10 mg/kg, 10 mg/kg IP, 2 hr, read-out: Plasma Concentration, Mean): 47.9 µg/mL | concentration at 2 hr ([2]; male, CD1, mouse, plasma, 10 mg/kg, 10 mg/kg IP, 2 hr, read-out: Plasma Concentration, individual animal): 53.6 µg/mL | concentration at 4 hr ([2]; male, CD1, mouse, plasma, 10 mg/kg, 10 mg/kg IP, 4 hr, read-out: Plasma Concentration, Mean): 50.9 µg/mL | concentration at 8 hr ([2]; male, CD1, mouse, plasma, 10 mg/kg, 10 mg/kg IP, 8 hr, read-out: Plasma Concentration, Mean): 28.4 µg/mL | concentration at 8 hr ([2]; male, CD1, mouse, plasma, 10 mg/kg, 10 mg/kg IP, 8 hr, read-out: Plasma Concentration, individual animal): 35.1 µg/mL | concentration at 24 hr ([2]; male, CD1, mouse, plasma, 10 mg/kg, 10 mg/kg IP, 24 hr, average of two values): 0.0997 µg/mL | concentration at 0.08 hr ([2]; male, CD1, mouse, plasma, 50 mg/kg, 50 mg/kg IP, 0.08 hr, read-out: Plasma Concentration, Mean): 79.6 µg/mL | concentration at 0.08 hr ([2]; male, CD1, mouse, plasma, 50 mg/kg, 50 mg/kg IP, 0.08 hr, read-out: Plasma Concentration, individual animal): 89 µg/mL | concentration at 0.25 hr ([2]; male, CD1, mouse, plasma, 50 mg/kg, 50 mg/kg IP, 0.25 hr, read-out: Plasma Concentration, Mean): 129 µg/mL | concentration at 0.5 hr ([2]; male, CD1, mouse, plasma, 50 mg/kg, 50 mg/kg IP, 0.5 hr, read-out: Plasma Concentration, Mean): 94 µg/mL | concentration at 1 hr ([2]; male, CD1, mouse, plasma, 50 mg/kg, 50 mg/kg IP, 1 hr, read-out: Plasma Concentration, Mean): 228 µg/mL | concentration at 1 hr ([2]; male, CD1, mouse, plasma, 50 mg/kg, 50 mg/kg IP, 1 hr, read-out: Plasma Concentration, individual animal): 229 µg/mL | concentration at 2 hr ([2]; male, CD1, mouse, plasma, 50 mg/kg, 50 mg/kg IP, 2 hr, read-out: Plasma Concentration, Mean): 175 µg/mL | concentration at 4 hr ([2]; male, CD1, mouse, plasma, 50 mg/kg, 50 mg/kg IP, 4 hr, read-out: Plasma Concentration, Mean): 116 µg/mL | concentration at 4 hr ([2]; male, CD1, mouse, plasma, 50 mg/kg, 50 mg/kg IP, 4 hr, read-out: Plasma Concentration, individual animal): 128 µg/mL | concentration at 8 hr ([2]; male, CD1, mouse, plasma, 50 mg/kg, 50 mg/kg IP, 8 hr, read-out: Plasma Concentration, Mean): 90.1 µg/mL | concentration at 8 hr ([2]; male, CD1, mouse, plasma, 50 mg/kg, 50 mg/kg IP, 8 hr, read-out: Plasma Concentration, individual animal): 102 µg/mL | concentration at 24 hr ([2]; male, CD1, mouse, plasma, 50 mg/kg, 50 mg/kg IP, 24 hr): 0.96 µg/mL | AUC(0-t) [2, 3]: 558 µg·h/mL | Cmax [2, 3]: 50.9 µg/mL | Tmax [2, 3]: 4 h | AUC(0-inf) [2, 4]: 1770 µg·h/mL | AUC(0-t) [2, 4]: 1760 µg·h/mL | Cmax [2, 4]: 228 µg/mL | Tmax [2, 4]: 1 h
